Source: the NIST ThermoML archive (doi:10.1016/j.jct.2015.06.036)

Test: xn = mol fraction of the nth substance listed
Conditions: 101 kPa, Liquid; for viscosity: Falling or rolling sphere viscometry; for speed of sound: Sing-around technique in a fixed-path interferometer; for mass density: Vibrating tube method

CCn1cc[n+](C)c1.F[B-](F)(F)F [1-ethyl-3-methylimidazolium tetrafluoroborate] + CO
Conditions | mass density [kg/m3] | speed of sound [m/s] | viscosity [mPa·s]
278.15 K, x1 = 0.0499 | 896.8 | 1233 | 0.998
278.15 K, x1 = 0.0998 | 965.1 | 1283 | 1.43
278.15 K, x1 = 0.1498 | 1019.5 | 1336 | 1.92
278.15 K, x1 = 0.1998 | 1062.4 | 1384 | 2.52
278.15 K, x1 = 0.3002 | 1127.9 | 1465 | 4.08
278.15 K, x1 = 0.4004 | 1174.8 | 1523 | 6.45
278.15 K, x1 = 0.5001 | 1209.6 | 1565 | 9.84
278.15 K, x1 = 0.6004 | 1237.2 | 1597 | 15.3
278.15 K, x1 = 0.6987 | 1258.7 | 1623 | 24.6
278.15 K, x1 = 0.8005 | 1277.4 | 1644 | 38.9
278.15 K, x1 = 0.8486 | 1284.8 | 1653 | 47.9
278.15 K, x1 = 0.8987 | 1292.3 | 1661 | 61.5
278.15 K, x1 = 0.9476 | 1298.6 | 1669 | 76.5
278.15 K, x1 = 1 | 1305.3 | 1677 | 101
288.15 K, x1 = 0.0499 | 887.8 | 1204 | 0.848
288.15 K, x1 = 0.0998 | 956.3 | 1259 | 1.19
288.15 K, x1 = 0.1498 | 1010.9 | 1313 | 1.57
288.15 K, x1 = 0.1998 | 1053.8 | 1361 | 2.03
288.15 K, x1 = 0.3002 | 1119.4 | 1441 | 3.24
288.15 K, x1 = 0.4004 | 1166.5 | 1499 | 5.01
288.15 K, x1 = 0.5001 | 1201.4 | 1540 | 7.49
288.15 K, x1 = 0.6004 | 1229.1 | 1572 | 11.3
288.15 K, x1 = 0.6987 | 1250.7 | 1598 | 17.7
288.15 K, x1 = 0.8005 | 1269.5 | 1619 | 26.8
288.15 K, x1 = 0.8486 | 1276.9 | 1628 | 32.3
288.15 K, x1 = 0.8987 | 1284.5 | 1636 | 40.2
288.15 K, x1 = 0.9476 | 1290.9 | 1644 | 48.7
288.15 K, x1 = 1 | 1297.6 | 1653 | 62
298.15 K, x1 = 0.0499 | 878.7 | 1176 | 0.732
298.15 K, x1 = 0.0998 | 947.5 | 1233 | 1.01
298.15 K, x1 = 0.1498 | 1002.2 | 1289 | 1.32
298.15 K, x1 = 0.1998 | 1045.3 | 1337 | 1.69
298.15 K, x1 = 0.3002 | 1111 | 1418 | 2.66
298.15 K, x1 = 0.4004 | 1158.2 | 1475 | 4.03
298.15 K, x1 = 0.5001 | 1193.3 | 1516 | 5.91
298.15 K, x1 = 0.6004 | 1221.1 | 1548 | 8.69
298.15 K, x1 = 0.6987 | 1242.8 | 1575 | 13.3
298.15 K, x1 = 0.8005 | 1261.7 | 1596 | 19.5
298.15 K, x1 = 0.8486 | 1269.2 | 1605 | 22.9
298.15 K, x1 = 0.8987 | 1276.8 | 1613 | 28
298.15 K, x1 = 0.9476 | 1283.2 | 1621 | 33.2
298.15 K, x1 = 1 | 1290 | 1629 | 41
308.15 K, x1 = 0.0499 | 869.6 | 1147 | 0.642
308.15 K, x1 = 0.0998 | 938.7 | 1208 | 0.872
308.15 K, x1 = 0.1498 | 993.6 | 1265 | 1.13
308.15 K, x1 = 0.1998 | 1036.8 | 1314 | 1.44
308.15 K, x1 = 0.3002 | 1102.7 | 1394 | 2.23
308.15 K, x1 = 0.4004 | 1150 | 1451 | 3.33
308.15 K, x1 = 0.5001 | 1185.3 | 1493 | 4.79
308.15 K, x1 = 0.6004 | 1213.2 | 1525 | 6.91
308.15 K, x1 = 0.6987 | 1235 | 1551 | 10.4
308.15 K, x1 = 0.8005 | 1254 | 1573 | 14.9
308.15 K, x1 = 0.8486 | 1261.5 | 1581 | 17.1
308.15 K, x1 = 0.8987 | 1269.1 | 1589 | 20.5
308.15 K, x1 = 0.9476 | 1275.6 | 1598 | 23.8
308.15 K, x1 = 1 | 1282.4 | 1606 | 28.8
318.15 K, x1 = 0.0499 | 860.5 | 1119 | 0.57
318.15 K, x1 = 0.0998 | 929.8 | 1182 | 0.772
318.15 K, x1 = 0.1498 | 984.9 | 1241 | 0.979
318.15 K, x1 = 0.1998 | 1028.3 | 1290 | 1.24
318.15 K, x1 = 0.3002 | 1094.4 | 1371 | 1.9
318.15 K, x1 = 0.4004 | 1141.9 | 1428 | 2.81
318.15 K, x1 = 0.5001 | 1177.3 | 1470 | 3.98
318.15 K, x1 = 0.6004 | 1205.4 | 1502 | 5.65
318.15 K, x1 = 0.6987 | 1227.2 | 1528 | 8.37
318.15 K, x1 = 0.8005 | 1246.3 | 1550 | 11.7
318.15 K, x1 = 0.8486 | 1253.9 | 1559 | 13.2
318.15 K, x1 = 0.8987 | 1261.6 | 1567 | 15.7
318.15 K, x1 = 0.9476 | 1268 | 1575 | 17.8
318.15 K, x1 = 1 | 1274.9 | 1583 | 21.2
